Reference: patent US20110034990A1, “BIOCORRODIBLE IMPLANT WITH ACTIVE COATING” (priority 2009, published 2011)

Text: It has been discovered that squalene is a particularly suitable substance for use in some invention embodiments. […] Thus, for example, lycopene and ubichinon are toxic in concentrations of 10 μmol/l. Squalene, on the other hand, is not toxic, even in concentrations of 100 μmol/l.

Compound | concentration at which the substance is toxic [µM]
ubichinon | 10
CC(C)=CCCC(C)=CCCC(C)=CCCC=C(C)CCC=C(C)CCC=C(C)C [Squalene, 2,6,10,15,19,23-hexamethyl-2,6,10,14,18,22-tetracosahexaene] | > 100
CC(C)=CCC/C(C)=C/C=C/C(C)=C/C=C/C(C)=C/C=C/C=C(C)/C=C/C=C(C)/C=C/C=C(\C)CCC=C(C)C [lycopene] | 10
